Measurements reported in ChEMBL document CHEMBL2203177, “Tuning the activity of a short arg-trp antimicrobial Peptide by lipidation of a C- or N-terminal lysine side-chain” (ACS Med Chem Lett, 2012).
≈ marks a conversion by molar mass, not a printed value. Peptide text beside a SMILES is read from it. * marks the point of attachment. Lauroyl = CCCCCCCCCCCC(=O)*; Decanoyl = CCCCCCCCCC(=O)*; Octanoyl = CCCCCCCC(=O)*; Butyryl = CCCC(=O)*

Experiments:
[1] = Hemolytic activity against human RBC assessed as hemoglobin leakage at 250 ug/ml; format: ADME, cell-based, Erythrocyte; conditions: human red blood cells, read-out: Activity
Staphylococcus aureus [2] = assay: Antibacterial activity against Staphylococcus aureus ATCC 43300 assessed as growth inhibition after 18 hrs; format: functional; conditions: ATCC 43300, 18 h
Bacillus subtilis [3] = assay: Bactericidal activity against Bacillus subtilis 168 (trpC2)2 assessed as survival rate at twice MIC concentration incubated for 15 mins measured after 18 hrs; format: functional, subsp. subtilis str. 168 (trpC2)2
Pseudomonas aeruginosa = assay: Antibacterial activity against Pseudomonas aeruginosa DSM 50071 assessed as growth inhibition after 18 hrs; format: functional; conditions: DSM 50071, 18 h
Staphylococcus aureus [4] = assay: Antibacterial activity against Staphylococcus aureus DSM 20231 assessed as growth inhibition after 18 hrs; format: functional; conditions: DSM 20231, 18 h
Acinetobacter baumannii = assay: Antibacterial activity against Acinetobacter baumannii DSM 30007 assessed as growth inhibition after 18 hrs; format: functional; conditions: DSM 30007, 18 h
Bacillus subtilis [5] = assay: Antibacterial activity against Bacillus subtilis 168 DSM 402 assessed as growth inhibition after 18 hrs; format: functional; conditions: subsp. subtilis str. 168 DSM 402, 18 h
Escherichia coli = assay: Antibacterial activity against Escherichia coli DSM 30083 assessed as growth inhibition after 18 hrs; format: functional; conditions: DSM 30083, 18 h
MCF7 [6] = assay: Cytotoxicity against human MCF7 cells assessed as inhibition of cell viability after 48 hrs by crystal violet assay; format: functional, cell-based; conditions: MCF7, 48 h
[7] = Hemolytic activity against human RBC assessed as hemoglobin leakage at 500 ug/ml after 5 mins; format: ADME, cell-based, Erythrocyte; conditions: human red blood cells, read-out: Activity
[8] = Hemolytic activity against human RBC assessed as hemoglobin leakage; format: ADME, cell-based, Erythrocyte; conditions: human red blood cells
MCF7 [9] = assay: Selectivity index, ratio of IC50 for human GM5657 cells to IC50 for human MCF7 cells; format: functional
[10] = Cytotoxicity against human GM5657 cells assessed as inhibition of cell viability after 48 hrs by crystal violet assay; format: cell-based; conditions: GM5657, 48 h
[11] = Ratio of IC50 for human GM5657 cells to MIC for Staphylococcus aureus DSM 20231; format: functional
[12] = Selectivity index, ratio of IC50 for human GM5657 cells to IC50 for human HT29 cells; format: functional
HT-29 = assay: Cytotoxicity against human HT-29 cells assessed as inhibition of cell viability after 48 hrs by crystal violet assay; format: functional, cell-based; conditions: HT-29, 48 h

| SMILES | hemolysis at 250 ug/ml [1] [%] | MIC (Staphylococcus aureus [2]) [µM] | Survival (Bacillus subtilis [3]) [%] | MIC (Pseudomonas aeruginosa) [µM] | MIC (Staphylococcus aureus [4]) [µM] | MIC (Acinetobacter baumannii) [µM] | MIC (Bacillus subtilis [5]) [µM] | MIC (Escherichia coli) [µM] | IC50 (MCF7 [6]) [µM] | hemolysis at 5 min, 500 ug/ml [7] [%] | HC50 [8] [µM] | Ratio IC50 (MCF7 [9]) | IC50 [10] [µM] | Ratio IC50 [11] | Ratio IC50 [12] | IC50 (HT-29) [µM] |
| --- | --- | --- | --- | --- | --- | --- | --- | --- | --- | --- | --- | --- | --- | --- | --- | --- |
| CCCCCCCCCCCC(=O)NCCCC[C@H](N)C(=O)N[C@@H](CCCNC(=N)N)C(=O)N[C@@H](Cc1c[nH]c2ccccc12)C(=O)N[C@@H](CCCNC(=N)N)C(=O)N[C@@H](Cc1c[nH]c2ccccc12)C(=O)N[C@@H](CCCNC(=N)N)C(=O)N[C@@H](Cc1c[nH]c2ccccc12)C(N)=O (H-K(Lauroyl)RWRWRW-NH2) | > 50 | 2 (≈ 2.71 µg/mL) | 0.011 | > 100 | 4 (≈ 5.42 µg/mL) | 18 (≈ 24.4 µg/mL) | 9 (≈ 12.2 µg/mL) | 9 (≈ 12.2 µg/mL) | – | – | – | – | – | – | – | – |
| CCCCCCCC(=O)NCCCC[C@H](NC(=O)[C@H](Cc1c[nH]c2ccccc12)NC(=O)[C@H](CCCNC(=N)N)NC(=O)[C@H](Cc1c[nH]c2ccccc12)NC(=O)[C@H](CCCNC(=N)N)NC(=O)[C@H](Cc1c[nH]c2ccccc12)NC(=O)[C@@H](N)CCCNC(=N)N)C(N)=O (H-RWRWRWK(Octanoyl)-NH2) | 10 | 2 (≈ 2.6 µg/mL) | 0.261 | 18 (≈ 23.4 µg/mL) | 2 (≈ 2.6 µg/mL) | 5 (≈ 6.49 µg/mL) | 0.6 (≈ 0.779 µg/mL) | 2 (≈ 2.6 µg/mL) | 4.7 | 48 | 285 | 7 | 31.3 | 15 | 7 | 4.5 |
| CCCCCCCCCCCC(=O)NCCCC[C@H](NC(=O)[C@H](Cc1c[nH]c2ccccc12)NC(=O)[C@H](CCCNC(=N)N)NC(=O)[C@H](Cc1c[nH]c2ccccc12)NC(=O)[C@H](CCCNC(=N)N)NC(=O)[C@H](Cc1c[nH]c2ccccc12)NC(=O)[C@@H](N)CCCNC(=N)N)C(N)=O (H-RWRWRWK(Lauroyl)-NH2) | > 50 | 1 (≈ 1.35 µg/mL) | 0.004 | 18 (≈ 24.4 µg/mL) | 1 (≈ 1.35 µg/mL) | 9 (≈ 12.2 µg/mL) | 1 (≈ 1.35 µg/mL) | 4 (≈ 5.42 µg/mL) | – | – | – | – | – | – | – | – |
| CCCCCCCCCC(=O)NCCCC[C@H](NC(=O)[C@H](Cc1c[nH]c2ccccc12)NC(=O)[C@H](CCCNC(=N)N)NC(=O)[C@H](Cc1c[nH]c2ccccc12)NC(=O)[C@H](CCCNC(=N)N)NC(=O)[C@H](Cc1c[nH]c2ccccc12)NC(=O)[C@@H](N)CCCNC(=N)N)C(N)=O (H-RWRWRWK(Decanoyl)-NH2) | 50 | 1 (≈ 1.33 µg/mL) | 0.053 | 9 (≈ 11.9 µg/mL) | 1 (≈ 1.33 µg/mL) | 5 (≈ 6.63 µg/mL) | 0.6 (≈ 0.796 µg/mL) | 2 (≈ 2.65 µg/mL) | – | – | – | – | – | – | – | – |
| CC(=O)NCCCC[C@H](N)C(=O)N[C@@H](CCCNC(=N)N)C(=O)N[C@@H](Cc1c[nH]c2ccccc12)C(=O)N[C@@H](CCCNC(=N)N)C(=O)N[C@@H](Cc1c[nH]c2ccccc12)C(=O)N[C@@H](CCCNC(=N)N)C(=O)N[C@@H](Cc1c[nH]c2ccccc12)C(N)=O (H-K(Ac)RWRWRW-NH2) | < 10 | > 100 | – | > 100 | > 100 | > 100 | 10 (≈ 12.1 µg/mL) | > 100 | – | – | – | – | – | – | – | – |
| CCCCCCCCCC(=O)NCCCC[C@H](N)C(=O)N[C@@H](CCCNC(=N)N)C(=O)N[C@@H](Cc1c[nH]c2ccccc12)C(=O)N[C@@H](CCCNC(=N)N)C(=O)N[C@@H](Cc1c[nH]c2ccccc12)C(=O)N[C@@H](CCCNC(=N)N)C(=O)N[C@@H](Cc1c[nH]c2ccccc12)C(N)=O (H-K(Decanoyl)RWRWRW-NH2) | > 50 | 1 (≈ 1.33 µg/mL) | 0.016 | 9 (≈ 11.9 µg/mL) | 2 (≈ 2.65 µg/mL) | 9 (≈ 11.9 µg/mL) | 2 (≈ 2.65 µg/mL) | 5 (≈ 6.63 µg/mL) | – | – | – | – | – | – | – | – |
| CCCC(=O)NCCCC[C@H](NC(=O)[C@H](Cc1c[nH]c2ccccc12)NC(=O)[C@H](CCCNC(=N)N)NC(=O)[C@H](Cc1c[nH]c2ccccc12)NC(=O)[C@H](CCCNC(=N)N)NC(=O)[C@H](Cc1c[nH]c2ccccc12)NC(=O)[C@@H](N)CCCNC(=N)N)C(N)=O (H-RWRWRWK(Butyryl)-NH2) | < 10 | 38 (≈ 47.2 µg/mL) | – | > 100 | > 100 | > 100 | 5 (≈ 6.21 µg/mL) | 38 (≈ 47.2 µg/mL) | – | – | – | – | – | – | – | – |
| N=C(N)NCCC[C@H](NC(=O)[C@H](Cc1c[nH]c2ccccc12)NC(=O)[C@H](CCCNC(=N)N)NC(=O)[C@H](Cc1c[nH]c2ccccc12)NC(=O)[C@@H](N)CCCNC(=N)N)C(=O)N[C@@H](Cc1c[nH]c2ccccc12)C(N)=O (H-RWRWRW-NH2) | < 10 | 6 (≈ 6.27 µg/mL) | 2.8 | > 100 | 11 (≈ 11.5 µg/mL) | 85 (≈ 88.8 µg/mL) | 3 (≈ 3.13 µg/mL) | 21 (≈ 21.9 µg/mL) | – | – | – | – | – | – | – | – |
